Conditions: Liquid, Vibrating tube method

CCCCCO [pentan-1-ol]
mass density [kg/m3]
Conditions	293.15 K	303.15 K	313.15 K	323.15 K	333.15 K	343.15 K
100 kPa	814.7	807.3	799.8	792.5	784.4	776.5
10000 kPa	821.1	814.4	807.4	800.3	792.7	785.2
20000 kPa	827.3	820.7	814.1	807.3	800.1	792.9
30000 kPa	833.2	826.7	820.2	813.7	806.8	799.9
40000 kPa	838.6	832.2	826	819.8	813.1	806.6
50000 kPa	843.6	837.5	831.5	825.4	818.9	812.6
60000 kPa	848.5	842.4	836.6	830.7	824.4	818.3
70000 kPa	853.1	847	841.4	835.7	829.7	823.7
80000 kPa	857.4	851.6	846.1	840.4	834.6	828.7
90000 kPa	861.7	855.8	850.5	845	839.2	833.5
100000 kPa	865.8	860.1	854.8	849.3	843.7	838.2
110000 kPa	869.6	864.1	858.9	853.6	848	842.5
120000 kPa	873.2	868	862.8	857.6	852.1	846.8
130000 kPa	876.9	871.7	866.6	861.5	856	850.9
140000 kPa	880.3	875.2	870.2	865.3	860	854.8

Source: the NIST ThermoML archive (doi:10.1016/j.fluid.2008.06.007)
